Test results taken from patent publication US9388405B2, “Method for identifying a subpopulation of mammalian cells with distinctive ribosome translation profiles” (priority 2009, dated 2016).

Legend:
Type in all cases: cell-based, human
[1] = system: MCF7 mTRdm-fLuc subclones #8, #27, and #45; assay: PKC activator dose response, cap-independent TR translation (fLuc); settings: single-Toxin
Protocol: Following 6 hr culture with a TPA single-Toxin assay, cells were lysed and fLuc protein activity measured using a standard microplate reader assay. The plate reader values were averaged and expressed as the ratio of treated to untreated samples (Fold Induction).
As with FIG. 27B, dashed lines represent translational response levels achieved by the 100 nM TPA assay in each cell line. […] A further difference between the cap-dependent and cap-independent assays was the observation that increased Bryostatin 2 concentrations (5× the maximal TPA dose) never produced fLUC activity equivalent to the 100 nM TPA assay. Thus, the Toxin Assay procedure can detect a statistically significant difference in cap-dependent and cap-independent translation in compounds that activate PKC activity.
In the cap-independent assays, a similar dose response trend was observed over a 1 nM to 250 nM range with a translational peak at a 100 nM dose. However, the magnitude of the Bryostatin increases were generally 30% of 100 nM TPA response.

[2] = system: MCF7 CMV-fLuc subclones #44 and #48; assay: PKC activator dose response, cap-dependent translation (fLuc); settings: single-Toxin
Protocol: Following 6 hr exposure to the Single-Toxin TPA assay, cells were lysed and fLuc protein activity measured using a standard microplate reader assay. The raw values were averaged and expressed as the ratio of treated to untreated samples (Fold Induction).
Dashed lines represent translational response levels produced by a 100 nM TPA Single-Toxin assay. The Bryostatin 1 concentrations (top panel) encompassed the TPA concentrations used in FIG. 27A. […] The Bryostatin 2 dose response curve (bottom panel) employed higher drug concentrations (the maximal tested dose was 5× the largest TPA and Bryostatin 1 amounts). At the highest tested dose (2.5 uM), Bryostatin 2 produced fLuc activity consistent with the level observed with 100 nM TPA.
In addition to measuring cap-dependent and cap-independent translational effects, Class-specific translational activity and toxin-defined actions, the previously described materials and methods allow for a variety of applications designed to detect and characterize agents and processes that regulate ribosome activity. In this example, comparative dose response assays were used to detect cap-dependent and cap-independent translational regulation in MCF7 cells. The basis for this application was the observation that distinct translational responses are produced by compounds at different doses. When an assortment of compounds act on a common molecular target, they can be grouped into a genus of related drugs. By comparing individual species of a compound genus over a defined dose range, differences in translational regulation can be defined. Furthermore, these translational differences can often be linked to biological differences.
In this example (FIG. 27), the three PKC activators produced similar dose response trends in cap-dependent assays. […] However, macrolide lactones produced translational increases that were generally 60-70% of the TPA translational response (FIG. 27B). In fact, a 25 fold increase in Bryostatin 2 concentration (2.5 uM) was needed to produce a translational magnitude similar to the 100 nM TPA assay (FIG. 27B).

[3] = system: HEK293 CMV-fLUC #3, hTRdm-fLUC #13 and mTRdm-fLUC #45 subclones; assay: Translation elongation inhibitor single-Toxin and two-Toxin (100 nM TPA) dose response; settings: for low dose sufficient to reduce reporter protein levels below untreated control cells: HEK293 CMV-fLUC #3 and mTRdm-fLUC #45 subclones; for reporter protein level versus untreated control: 25 uM inhibitor + 100 nM TPA, HEK293 mTRdm-fLUC #45 subclone
Protocol: At sufficiently large doses, these inhibitors immediately stop protein translation, and the resulting protein turnover reduces reporter protein levels below untreated cell levels (<100% control).
For the HEK293 CMV-fLUC #3 (top panel) and mTRdm-fLUC #45 (bottom panel) subclones, anisomycin and emetine antagonized the TPA response at the lowest tested dose (10 nM) and reduced reporter protein levels 50-300% compared to the TPA single-Toxin assay. This contrasted with puromycin, which required a 250 nM concentration (25×) to initially reduce protein synthesis below the TPA Single-Toxin assay level in all three cell lines. […] For example, the CMV-fLUC #3 subclone required a 2.5 uM puromycin dose to correlate with the other inhibitors, which contrasted with hTRdm-fLUC #13 and mTRdm-fLUC #45 subclones which needed a 25 uM puromycin concentration (a 10× increase).
In this example (FIG. 33), single-Toxin and two-Toxin dose responses were used to define translational responses associated with translation inhibitors. Inhibitors of protein biosynthesis generally act by interfering with translational initiation (assembly of the components or structures required for translation) or elongation (enzymatic process of peptide synthesis and chain movement within the ribosome). A variety of translational inhibitors exist that affect each of these stages. Due to the fact that cap-dependent and cap-independent translation display distinct translational initiation mechanisms, this example focused on translational inhibitors associated with peptide elongation. Since the majority of these enzymatic processes are common to cap-dependent and cap-independent translation, any significant differences in chain elongation reflect differences in peptide synthesis.
A dose response single-Toxin assay was used to examine translation regulation in HEK293 cells (FIG. 33A). […] For example, translation inhibition stops reporter protein production, and protein turnover reduces reporter activity below the basal level. In this example, a 250 nM concentration of each inhibitor was sufficient to reduce protein synthesis below control cell levels in cap-dependent and cap-independent assays (FIG. 33A). Furthermore, any dose above 2.5 uM produced only minimal additional reductions in reporter protein activity supporting the theory that translation in these assays had ceased.
In a second effort, a two-Toxin dose response assay was performed by varying the concentration of the elongation inhibitors in combination with the 100 nM TPA activator (FIG. 33B). This combinatorial assay was designed to examine protein synthesis in stimulated cells preferentially translating the TR transcript. As in the single-Toxin assays, cap-dependent translation was arrested by 2.5 uM puromycin (top panel) which contrasted with the cap-independent assays where a 10× increase in puromycin concentration (25 uM) was needed to prevent new protein synthesis. However even at this highest tested dose, immediate translation inhibition was not observed in any cell line (FIG. 33C).

[4] = system: MCF7 mTRdm-fLuc subclone #27; assay: Topoisomerase 1 inhibitor single-Toxin and two-Toxin (100 nM TPA) dose response, cap-independent; settings: 10 nM to 10 uM; for effect on cap-independent translation: single-Toxin; for effect on TPA activity: two-Toxin with 100 nM TPA
Protocol: FIG. 28C illustrates the use of single-Toxin Assays to measure the effects of Topoisomerase 1 inhibitors on cap-independent translation in MCF7 cells. Triplicate samples of the MCF7 mTRdm-fLuc subclone #27 were treated with varying concentrations (10 nM to 10 uM range) of the Topoisomerase 1 inhibitors; camptothecin, rubitecan, irinotecan and topotecan. The plate reader values were averaged and expressed as the ratio of treated to untreated samples (Fold Induction). The dashed line represents the level of translational response in untreated controls.
FIG. 28D illustrates the use of a two-Toxin Combinatorial Assay on the MCF7 mTRdm-fLuc subclone #27 treated with 100 nM TPA plus varying doses (10 nM to 10 uM range) of the Topoisomerase 1 inhibitors. The plate reader values were averaged and expressed as the ratio of treated to untreated samples (Fold Induction). The dashed line represents the level of translational response in untreated samples. All four inhibitors acted synergistically with TPA to increase protein activity in the 10 nM two-Toxin assay.
FIG. 28D illustrates the use of a two-Toxin dose response assay using varying dosages of the TopoI inhibitors in combination with the 100 nM TPA translational activator. All four inhibitors acted synergistically with TPA at low doses to increase protein translation. At concentrations higher than 100 nM, camptothecin, rubitecan, and topotecan antagonized the TPA response and reduced the fLUC expression.

[5] = system: MCF7 CMV-fLuc subclone #65; assay: Topoisomerase 1 inhibitor single-Toxin and two-Toxin (100 nM TPA) dose response, cap-dependent; settings: 10 nM to 10 uM; for dose at peak of fLuc protein expression: 6 hr; for dose at peak of fLuc protein expression / effect on TPA-specific translational response: cap-dependent; for effect on TPA-specific translational response: two-Toxin with constant 100 nM TPA
Protocol: FIG. 28A illustrates a dose response assay of the MCF7 CMV-fLuc subclone #65 treated with varying doses (10 nM to 10 uM range) of the following Topoisomerase 1 inhibitors: camptothecin, topotecan, irinotecan, and rubitecan. Following a 6 hr incubation in a single-Toxin assay, cells were lysed and fLuc protein activity measured using a standard microplate reader assay. The plate reader values were averaged and expressed as the ratio of treated to untreated samples (Fold Induction). The dashed line represents the level of translational response in untreated cell samples.
FIG. 28B illustrates the use of a Combinatorial Assay to examine the effects of Topoisomerase 1 inhibitors on cap-dependent translation. A series of dose response assays were performed on the MCF7 CMV-fLuc subclone #65 using varying doses of the Topoisomerase 1 inhibitors (10 nM to 10 uM range) in a Two-Toxin assay with a constant 100 nM TPA dose. The plate reader values were averaged and expressed as the ratio of treated to untreated samples (Fold Induction). The dashed line represents the level of translational response in untreated samples.
FIG. 28A illustrates a cap-dependent dose response assay of MCF7 cells treated with varying dosages (10 nM to 10 uM range) of the following TopoI inhibitors: camptothecin, topotecan, irinotecan, and rubitecan. […] While the altered irinotecan response might have been predicted based on its metabolic requirements, the lack of topotecan action on cap-dependent translation in the single-Toxin assays was unexpected.
Since similar doses inhibited translation in the single-Toxin assays (FIG. 28A), this effect might have represented a direct effect on translation.

Q: `CCC/C=C/C=C/C(=O)O[C@H]1/C(=C/C(=O)OC)C[C@H]2C[C@H]([C@@H](C)O)OC(=O)C[C@H](O)C[C@@H]3C[C@H](OC(C)=O)C(C)(C)[C@](O)(C[C@@H]4C/C(=C/C(=O)OC)C[C@H](/C=C/C(C)(C)[C@]1(O)O2)O4)O3` [Bryostatin 1] was tested. Which “magnitude of translational response versus 100 nM TPA tests” value [1] did it give?
A: never reached the fLuc activity produced in 100 nM TPA tests

Q: What about the “dose giving peak fLuc protein activity” value ([1]; 6 hr) of the same compound?
A: 100 nM

Q: And the “magnitude of reporter activity versus 100 nM TPA assay” value ([2]; 500 pM to 500 nM)?
A: never reached the fLuc activity level produced by the 100 nM TPA assay

Q: What about the “dose giving maximal reporter level (translational peak)” value ([2]; 6 hr) of the same compound?
A: 100 nM

Q: Which results are given for `COc1ccc(C[C@H]2NC[C@H](O)[C@H]2OC(C)=O)cc1` [anisomycin]?
A: reduction of reporter protein levels compared to the TPA single-Toxin assay ([3]; 10 nM inhibitor + 100 nM TPA, CMV-fLUC #3 and mTRdm-fLUC #45): 50-300%; low dose sufficient to reduce reporter protein levels below untreated control cells ([3]; single-Toxin): ~25 nM

Q: For `CC[C@@]1(O)C(=O)OCc2c1cc1n(c2=O)Cc2cc3ccccc3nc2-1` [camptothecin], which “effect on cap-independent translation” value [4] is on record?
A: exhibited reduced fLUC activity at higher doses (5 uM and 10 uM)

Q: What about the “effect on TPA activity” value [4] of the same compound?
A: antagonized the TPA activity and exhibited reduced fLUC expression

Q: And the “dose at peak of fLuc protein expression” value ([5]; single-Toxin)?
A: ~1 µM

Q: And the “effect on TPA-specific translational response” value [5]?
A: acted synergistically with TPA to increase fLUC protein activity up to a 1 uM dose

Q: For `C[C@@H]1C[C@@H]([C@H](O)CC2CC(=O)NC(=O)C2)C(=O)[C@@H](C)C1` [cycloheximide], which “reporter protein level versus untreated control” value [3] is on record?
A: little or no reduction below untreated control cell levels

Q: With `CC[C@H]1CN2CCc3cc(OC)c(OC)cc3[C@@H]2C[C@@H]1C[C@H]1NCCc2cc(OC)c(OC)cc21` [emetine] as the compound, how does the “reporter protein level versus untreated control” value [3] read?
A: little or no reduction below untreated control cell levels

Q: What about the “low dose sufficient to reduce reporter protein levels below untreated control cells” value ([3]; single-Toxin) of the same compound?
A: 100 nM

Q: For `CCc1c2c(nc3ccc(OC(=O)N4CCC(N5CCCCC5)CC4)cc13)-c1cc3c(c(=O)n1C2)COC(=O)[C@]3(O)CC` [irinotecan], which “effect on cap-independent translation” value [4] is on record?
A: constant amount of fLUC activity at all tested concentrations

Q: What about the “effect on TPA activity” value [4] of the same compound?
A: displayed synergistic action with TPA and enhanced fLUC activity at all tested doses

Q: And the “effect on cap-dependent translation” value ([5]; single-Toxin)?
A: neither topotecan or irinotecan significantly altered cap-dependent translation

Q: What about the “effect on TPA-specific translational response” value [5] of the same compound?
A: did not produce any significant change in the TPA-specific translational response

Q: Which “reporter protein level versus untreated control” value [3] does the source give for `COc1ccc(C[C@H](N)C(=O)N[C@H]2[C@@H](O)[C@H](n3cnc4c(N(C)C)ncnc43)O[C@@H]2CO)cc1` [puromycin] here?
A: little or no reduction below untreated control cell levels

Q: What about the “concentration required to reduce reporter protein levels to levels comparable to the other three inhibitors” value ([3]; single-Toxin, cap-dependent and cap-independent) of the same compound?
A: 2.5 µM

Q: What about the “dose required to correlate with the other inhibitors (translation arrested)” value ([3]; two-Toxin with 100 nM TPA, CMV-fLUC #3 subclone, cap-dependent) of the same compound?
A: 2.5 µM

Q: And the “concentration required to initially reduce protein synthesis below the TPA Single-Toxin assay level” value ([3]; two-Toxin with 100 nM TPA, all three cell lines)?
A: 250 nM

Q: What about the “concentration needed to correlate with the other inhibitors (prevent new protein synthesis)” value ([3]; two-Toxin with 100 nM TPA, hTRdm-fLUC #13 and mTRdm-fLUC #45, cap-independent) of the same compound?
A: 25 µM

Q: What does the source list for `CC[C@@]1(O)C(=O)OCc2c1cc1n(c2=O)Cc2cc3c([N+](=O)[O-])cccc3nc2-1` [rubitecan]?
A: effect on cap-independent translation [4]: exhibited reduced fLUC activity at higher doses (5 uM and 10 uM); effect on TPA activity [4]: antagonized the TPA activity and exhibited reduced fLUC expression; dose at peak of fLuc protein expression ([5]; single-Toxin): ~1 µM; effect on TPA-specific translational response [5]: acted synergistically with TPA to increase fLUC protein activity up to a 1 uM dose
